Data: patent US20040023884A1, “Biologically active peptides from functional domains of bactericidal/permeability-increasing protein and uses thereof” (priority 1993, published 2004)
Ends that are not written are not given here.

How the values were obtained:
E. coli O75 = assay: Radial diffusion bactericidal assay, E. coli O75; type: cell-based; settings: FIG. 11d; up to about 2000 pmol
Pseudomonas aeruginosa = assay: Radial diffusion bactericidal assay, Pseudomonas aeruginosa; type: cell-based; settings: FIG. 11a; up to about 2000 pmol
E. coli O18:K1:H7 = assay: Radial diffusion bactericidal assay, E. coli O18:K1:H7; type: cell-based; settings: FIG. 11b; up to about 2000 pmol
[1] = LPS binding by tryptophan fluorescence quenching
Excerpt: The naturally-occurring amino acid tryptophan can emit light (i.e., it fluoresces) having a wavelength between 300 and 400 nm after excitation with light having a wavelength of between about 280 nm and 290 nm, preferably 285 nm. The amount of emitted light produced by such fluorescence is known to be affected by the local environment, including pH and buffer conditions, as well as binding interactions between proteins and other molecules. Some BPI functional domain peptides derived from domains II and III contain tryptophan residues, and tryptophan fluorescence was used to assay binding interactions between the BPI functional domain peptides of the invention and LPS or heparin.
Tryptophan fluorescence of the BPI functional domain peptides of the invention was determined in the presence or absence of LPS or heparin using a SPEX Fluorolog fluorimeter. Samples were excited with 285 nm light using a 0.25 nm slitwidth. Emission wavelengths were scanned between 300-400 nm using a 1.25 nm slitwidth. Data were accumulated as the average of three determinations performed over an approximately 5 min time span. Samples were maintained at 25° C. or 37° C. during the course of the experiments using a circulating water bath. Crab endotoxin binding protein (CEBP), a protein wherein the intrinsic fluorescence of tryptophan residues is affected by binding to LPS, was used as a positive control. (See Wainwright et al., 1990, Cellular and Molecular Aspects of Endotoxin Reactions, Nowotny et al., eds., Elsevier Science Publishing B.V., The Netherlands, pp. 315-325).
Kd values were determined by Scatchard-type Stern-Volmer plots of the quenching data as the negative inverse of the slope of such plots. Comparing the data for BPI.10, BPI.46 and BPI.47, it is seen that as the Kd decreased (indicating an increase in avidity for LPS), the percent fluorescence quenching increased. The differences between these peptides include replacement of basic and polar amino acid residues with non-polar residues in […] as compared with BPI.10. In contrast, as the Kd of heparin binding decreased, a corresponding increase in the percentage of fluorescence quenching was not detected.

[2] = tested on: Klebsiella pneumoniae 19645; assay: Radial diffusion bactericidal assay, antibiotic resistant Klebsiella pneumoniae 19645; type: cell-based
Procedure: These studies were conducted substantially following the procedures used in Example 2.
In order to test the bactericidal activity of BPI peptides on antibiotic resistant strains of Klebsiella pneumoniae, the multi-resistant clinically isolated strain 19645 was tested as in Example 2 and above. […] This strain was obtained from the Baxter Microscan® library (Sacramento, Calif.). An overnight culture of Klebsiella pneumoniae 19645 and a non-resistant strain (ATCC 29011) were diluted 1:50 into fresh tryptic soy broth and incubated for 3 hours at 37° C. to attain log phase. The overnight cultures were tested as described in Example 2 and part A above.

Salmonella typhurium = assay: Radial diffusion bactericidal assay, Salmonella typhurium; type: cell-based; settings: FIG. 11h
E. coli 86a:K61 = assay: Bactericidal assay performed in human serum, E. coli O86a:K61; type: cell-based; settings: FIG. 11l
Excerpt: FIG. 11l is a graph showing the results of BPI functional domain peptide BPI.30 in bactericidal assays performed in human serum;

E. coli 0111:B4 (smooth) = assay: Broth antibacterial assay, E. coli 0111:B4; type: cell-based
Procedure: In additional experiments, broth antibacterial assays were conducted to further determine the bactericidal activity of certain of the BPI peptides. Specifically, either E. coli J5 (rough) or E. coli 0111:B4 (smooth) bacteria were selected from single colonies on agar plates and used to inoculate 5 mL of Mueller Hinton broth and incubated overnight at 37° C. with shaking. The overnight culture was diluted (˜1:50) into 5 mL fresh broth and incubated at 37° C. to log phase (˜3 hours). Bacteria were pelleted for 5 minutes at 3000 rpm (1500×g). Bacterial pellets were resuspended in 5 mL PBS and diluted to 2×10^6 cells/mL in the Mueller Hinton broth (wherein 1 OD570 unit equals 1.25×10^9 CFU/mL). The BPI functional domain peptides to be tested were diluted to 200 μg/mL in broth and serially diluted 2-fold in 96 well culture plates (100 μL volume). All items were at 2-fold final concentration and experiments were conducted in triplicate. Bacteria were added at 100 μL/well and the plates were incubated on a shaker at 37° C. for a 20 hour period. The plates were then read on an ELISA plate multiple reader at 590 nm. One of the triplicate wells from each peptide concentration was selected for colony forming unit (CFU) determination. A 30 μL aliquot was added to 270 μL of PBS and further ten-fold serial dilutions were performed. Then a 50 μL aliquot was plated on tryptic soy agar and incubated overnight. Colonies were counted and final bacterial concentrations determined. The results of these assays are depicted in FIGS. 9e (for E. coli J5) and 9f (for E. coli 0111:B4).

ATIII/heparin complexes = assay: Thrombin inactivation by ATIII/heparin complexes (Chromostrate anti-thrombin assay); type: biochemical; settings: 1.0 to 100 μg/mL
Procedure: BPI functional domain peptides BPI.2, BPI.3, BPI.4, BPI.5, BPI.6, and BPI.8, along with rBPI23 as a positive control, were assayed for their effect on thrombin inactivation by ATIII/heparin complexes according to the method of Example 3 in copending and co-assigned U.S. patent application Ser. No. 08/093,202, filed Jul. 15, 1993, incorporated by reference. Specifically, a Chromostrate™ anti-thrombin assay kit (Organon Teknika Corp., Durham, N.C.) was used to examine the inhibition of purified thrombin by preformed ATIII/heparin complexes in plasma.
Briefly, the assay was performed in 96 well microtiter plates in triplicate with a final volume per well of 200 μL. Varying concentrations of the BPI functional domain peptides ranging from 1.0 μg/mL to 100 μg/mL were assayed to determine their effect on thrombin inhibition in the presence of pre-formed ATIII/heparin complexes. The order of addition of assay components was as follows: 1) a dilution series of rBPI23 or BPI functional domain peptides or thaumatin as a control protein, with final concentrations of 100, 50, 25, 10 and 1 μg/well, diluted in PBS in a final volume of 50 μL; 2) 50 μL plasma diluted 1:100 in a buffer supplied by the manufacturer, 3) 50 μl thrombin at 1 nKat/mL in a buffer supplied by the manufacturer, and 4) 50 μL chromogenic substrate at a concentration of 1 μmol/mL in water. The reaction was allowed to proceed for 10 minutes at 37° C. and stopped with the addition of 50 μL 0.1M citric acid. The colorimetric reaction was quantitated on a microplate reader as described in Example 3.

Substance | bactericidal activity (in words) (E. coli O75) | bactericidal activity (in words) (Pseudomonas aeruginosa) | bactericidal activity (in words) (E. coli O18:K1:H7) | bactericidal activity (in words) [2] | bactericidal activity (in words) (E. coli 0111:B4 (smooth)) | heparin neutralization effect (in words) (ATIII/heparin complexes) | also measured
KSKVGWLIQLFHKK-NH2 (C-terminus assumed) [BPI.13] | showed bactericidal activity | showed bactericidal activity | showed bactericidal activity | – | – | – | –
KWKAAARFLKKWKAAARFLK [BPI.48] | – | – | – | active against antibiotic resistant Klebsiella | – | – | Quenching LPS [1]: 62%; Kd ([1]; Stern-Volmer plots): 83 nM
KWKAQKRFLKKSKVGWLIQLFHKK-NH2 (C-terminus assumed) [BPI.30] | showed bactericidal activity | showed bactericidal activity | showed bactericidal activity | – | – | – | bactericidal activity (in words) (Salmonella typhurium): showed bactericidal activity; bactericidal activity (in words) (E. coli 86a:K61): showed bactericidal activity
KWKAQKRFLKKWKAQKRFLK-NH2 (C-terminus assumed) [BPI.7] | – | – | – | active against antibiotic resistant Klebsiella | significant bactericidal activity | significant heparin neutralization effects | –
NVGLKFSISNANIKISGKWKAQKRFLK [BPI.3] | – | – | – | – | less activity | most significant heparin neutralization effects | –
